One compound from patent US7132287B2, “Method for neural stem cell differentiation using 5HT-1A agonists” (Psychiatric Genomics, Inc., priority 2001, dated 2006) can be followed below.

The subject of experiment [1] is cerebellar stem cells. Put plainly: Astrocytic differentiation of cerebellar stem cells (GFAP positive cells). Type of experiment: cell-based, rat. The following applies: for % GFAP positive cells: Table 2 experiment. As for the experimental part: (§1) Drug treatments. Stem cells obtained as described above were treated with drugs and subjected to differentiation protocols in the second passage. Cells were plated at a density of 1×10^4 cells per well of a 12-well petridish (Falcon).
Drug treatments were started on the next day. […] The WAY 100635 antagonist compound was used simultaneously with buspirone or serotonin in the blocking experiments. Positive and negative control cultures were those treated with BDNF and FGF alone, respectively.
Cells were treated with the designated concentrations of drugs or combinations thereof, daily, and were fed every alternate day with fresh medium. Experiments were maintained for about 6–10 days in most cases. Cells were fixed on about day 7–11 with a 4% solution of para-formaldehyde (PFA) in PBS, prepared as follows:
Immunofluorescent staining and visualization. After fixation, the PBS was aspirated from the fixed cells and the cells were treated with blocking solution (10% normal goat serum-NGS-Jackson Labs), 0.3% Triton-Sigma, in PBS) to saturate non-specific sites and permeabilize the cells. Following blocking, cells were incubated with the following designated primary antibodies diluted in 5% NGS for 1 hour at room temperatuare: mouse monoclonal anti-MAP-2 (Sigma): 1/250 dilution; mouse monoclonal anti-β tubulin III (Covance): 1/600 dilution; mouse anti-monoclonal glial fibrillary acidic protein (GFAP-ICN Biomedicals): 1/100 dilution.
After the 1 hour incubation, cells were washed three times for 5 min each with PBS followed by incubation of a goat anti-mouse secondary antibody conjugated with stains Cy2 and Cy3 (Jackson Labs) for 1 hr at RT (dilution 1/100 as with the primary antibodies). Following three 5 minute washes with PBS, cells were incubated with the nuclear stain bis-benzimide (Sigma) for 10 min at RT. Cells were then washed 3 times with ultra-pure water and glass coverslips were mounted on them using AquaPolymount (Polysciences, Inc., PA) The mount was allowed to dry and the dishes were stored at 4° C.
For visualization of staining, the mounted cells were viewed under a fluorescent microscope using the appropriate ultra violet filters. An eyepiece with an engraved grid was used to count the cells that stained positive for β tubulin III (TuJ-1), MAP2 or GFAP. The percent of cells positive for a given antigen was estimated by counting nuclei of all cells present in the same field, as the nuclei of the cells stain blue with the bis benzimide. Five fields were counted per treatment condition, and averages with standard deviations were calculated.
To evaluate whether buspirone affected differentiation of neural stem cells into other neural cell types such as astrocytes, the buspirone-treated cerebellar cell cultures described above were subjected to immunofluorescence using a monoclonal antibody against an astrocyte-specific marker, glial fibrillary acidic protein, or GFAP.

Experiment [2] has as its system cerebellar stem cells. The experiment is described as follows: Neuronal differentiation of cerebellar stem cells (TuJ1 positive cells). It counts as cell-based, rat.
From the text: Isolation and quantitation of cerebellar stem cells. Neural stem cells were isolated from rat embryos (obtained from Taconic) at the 19th day of gestation (E19). The rats were sacrificed by inhalation of excess carbon dioxide. The abdomen of the rat was cleaned with 70% ethanol and the uterus was removed quickly and aseptically on the bench top. The uterus was placed in ice cold PBS (GIBCO Cat. # 20012-027) in a 200-ml beaker.
The cerebellar tissue was dissected under a microscope according to the following procedure and collected in a 15-ml tube containing HBSS on ice. The dissection should be completed in 1–2 hours (optimally) and the pH of the HBSS should remain neutral. First, the neck of the embryos was severed towards the bottom and the heads were collected in cold PBS. Next, the skin and scalp was removed from neck and head of the embryo. The brain, including the cerebral cortex, midbrain, cerebellum and some of the spinal cord, was removed by dissection under a microscope and transfered into a clean dish with fresh, cold PBS. The cerebellar region was dissected and cleaned of extraneous tissue, including removal of the meninges, and transferred into cold HBSS in a clean 15 ml tube.
The tube containing the cerebellar tissue was centrifuged at 1,000 RPM for 2 min at 15 C., followed by slow, careful aspiration of the HBSS supernatant (care should be taken to avoid aspirating tissue). (It is best to limit the centrifugation steps as much as possible.) About 1 to 3 ml of DMEM/F12/N2 medium (see below) was immediately added to the remaining tissue; the volume of medium depends on the quantity of the dissected tissue. The tissue was gently triturated about 8 to 10 times using a P-1000 Pipetteman until the tissue was dissociated (as evidenced by cloudy solution), then the tube was incubated in the hood for 5 minutes at room temperature to permit settlement of small particles of undissociated tissue. The supernatant was then transferred into a fresh tube, taking care to avoid the smaller particles of tissue that remained at the bottom of the tube.
Plating and expansion of cerebellar stem cells. The triturated cell suspension of E19 rat cerebellum was seeded into pre-coated 10 cm dishes at 2×10^6 cells per dish. This is denoted as the P0 culture (passage 0). The cells were grown in 5 ml of DMEM/F12/N2 supplemented with 25 mg/L insulin and 10 ng/ml bFGF at 37 C, 5% CO2 and 90% humidity.
Cells were fed daily with 10 ng/ml bFGF. The medium was changed one day after the cells were seeded, and thereafter every other day. On about day 4 of the culture, or when cells reached 70% confluence, the culture was passaged (see “Passage of cerebellar stem cells” below) and seeded into 10 cm dishes at an initial density of 2×10^6 cells per dish. This is denoted as the P1 culture (passage 1). The passaged cells at P1 were grown in DMEM/F12/N2 medium supplemented with 25 mg/L insulin and 10 ng/ml bFGF. The medium was changed every other day.
After two days of culture, some cells were passaged into a P2 culture, and some were seeded in 12-well tissue culture plates for experimental use. One ml of DMEM/F12/N2 medium was used per well of a 12-well plate at 2×10^4 cells per well. Experimental treatments were initiated the day after passage.
as §1
Drug treatments were started on the next day. […] The WAY 100635 antagonist compound was used simultaneously with buspirone or serotonin in the blocking experiments.

With `O=C1CC2(CCCC2)CC(=O)N1CCCCN1CCN(c2ncccn2)CC1` [buspirone, 8-[4-[4-(2-pyrimidinyl)-1-piperazinyl]butyl]-8-azaspiro[4,5]decane-7,9-dione], the “% GFAP positive cells” value is listed as 26.3 ± 3.7% with cerebellar stem cells [1] (10 nM); 12.9 ± 1.9% with cerebellar stem cells [1] (30 nM); 20.6 ± 5.2% in the experiment with cerebellar stem cells [1] (100 nM); 21.4 ± 4.6% with cerebellar stem cells [1] (300 nM); 27.0 ± 9.0% in the experiment with cerebellar stem cells [1] (1000 nM). Besides, the “effect on astrocytic differentiation” value in the experiment on cerebellar stem cells [1] (30 nM to 1 μM, FIG. 1B and FIG. 4) is recorded as “does not have any appreciable reproducible effects”. In addition, the “% Tuj 1 positive cells” value is 40.0 ± 3.7% in the experiment on cerebellar stem cells [2] (10 nM, Table 2 experiment); 30.7 ± 2.33% in the experiment with cerebellar stem cells [2] (10 nM, Table 3 experiment); 41.2 ± 6.7% in the experiment on cerebellar stem cells [2] (30 nM, Table 2 experiment); 37.4 ± 2.6% with cerebellar stem cells [2] (30 nM, Table 3 experiment); 33.1 ± 2.6% in the experiment with cerebellar stem cells [2] (100 nM, Table 2 experiment); 46.6 ± 3.8% with cerebellar stem cells [2] (100 nM, Table 3 experiment). In addition, the “% Tuj 1 positive cells” value in the experiment with cerebellar stem cells [2] (300 nM, Table 2 experiment) stood at 26.1 ± 3.9%; with cerebellar stem cells [2] (1000 nM, Table 2 experiment) it was 21.9 ± 3.9%; with cerebellar stem cells [2] (1000 nM, Table 3 experiment), 40.3 ± 2.8%. For the same compound, the “% TuJ1 positive cells” value turned out to be 54.4 ± 2.1% with cerebellar stem cells [2] (100 nM, Table 5 experiment); 56.8 ± 7.1% with cerebellar stem cells [2] (500 nM, Table 4 experiment); 64.8 ± 2.1% with cerebellar stem cells [2] (500 nM, Table 5 experiment); 67.9 ± 10.2% in the experiment with cerebellar stem cells [2] (10 μM, Table 5 experiment); 68.5 ± 6.5% in the experiment with cerebellar stem cells [2] (100 μM, Table 5 experiment). The “concentration inducing the highest percentage of neuronal differentiation” value in the experiment with cerebellar stem cells [2] (FIG. 1, lane 4) is around 100 nM. The “neuronal differentiation of neural stem cells (percent of neurons, TuJ1 positive)” value in the experiment with cerebellar stem cells [2] (FIG. 1, lanes 2–5, dosage range 10 nM to 300 nM, about 6 days) is 40–55%. The differentiation of neurons in the experiment with cerebellar stem cells [2] (FIG. 2, lane 3, buspirone 500 nM, untreated control less than 20%) was 50%. Further, the “promotion of neuronal differentiation of neural stem cells (in words)” value in the experiment with cerebellar stem cells [2] (concentrations from 10 nm to 100 um, Tables 2–5) was “effective at promoting neuronal differentiation”.
